The text below walks through data of patent publication US20040138311A1, “Medicament containing an effector of the glutathione metabolism together with $g(a)-lipoic acid for treating diabetes mellitus” (priority 2001, published 2004).

Common to all, as to type: cell-based, human
Experiment [1] relates to peritoneal macrophages. The experiment in a line: Stability of membrane-bound thiol expression in peritoneal macrophages in the dialysis model. The conditions noted are these: 14 days, high-glucose dialysis solution. The method, then:
(§1) The combinations of thiol-restored peritoneal macrophages used according to the invention were extracted from this test system after 6 days and cultivated over a period of 14 days in a dialysis model. For this purpose the peritoneal macrophages were adapted to matrices that were coated with collagen IV and placed in contact with conventional high-glucose dialysis solution 3 times a day for 60 minutes each time. In this case, the model was used for the induction of a combined hyperglycemic/osmotic stress. […] The membrane expression of thiol was determined on the basis of the median fluorescence intensity (mfi) of the specimen (3000 cells/measurement) after coupling to a chlormethyl-fuorochrome derivative. […] Here, too, there is a mono-effect of α-lipoic acid, although it lasts only briefly and after approximately 4 days in the dialysis model is only approximately 50% as effective as the combinations. A similar result is apparent in the curves of the membrane-bound thiol expression illustrated in FIG. 7.

Experiment [2] has as its system lymphocytes (peripheral immune cells). Put plainly: Membrane-bound thiol expression of thiol-depleted peripheral immune cells (CMTMR flow cytofluorimetry). The conditions noted are these: α-lipoic acid 50 μM, captopril 10 μM, combination at the same concentrations. The protocol:
Peripheral immune cells from healthy donors (n=9) were isolated from the peripheral blood. The major fraction of the resulting total population of mononuclear cells regularly represents lymphocytes with a relative percentage of approximately 90%, depending on the donor. 10% of the mononuclear cells are represented by monocytes. The mononuclear cells obtained were absorbed in special cell culture media and incubated in a gasifying incubation cabinet at 37° C., a relative humidity of 98% and 5% relative air-CO2 content. […] To test the influence of the combinations used according to the invention on the thiol status of thiol-deficient immune cells, these cells were artificially thiol-depleted. This process was carried out using proven methods by cultivation in thiol-deficient media (RPMI 1603). Comparative cultures using complete media (RPMI) 1640) were used to define the best possible normal value under the culture conditions. The expression of membrane-bound thiol groups was also determined using flow cytofluorimetry. In this case, chloromethyltetramethyl rhodamine (CMTMR) was used as thiol conjugate under the conditions of a blocked membrane potential and an inhibited diffusion capacity of the cells. The fluorescence intensity of the fluorochrome molecules bound to the cell membrane is in turn proportional to the number of thiol groups on the cell surface. The results obtained with this experimental investigation of the influence of the combinations according to the invention on the expression of cell membrane bound thiols are presented in FIG. 2 for the combinations of α-lipoic acid and ambroxol (FIG. 2a) and α-lipoic acid and enalapril (FIG. 2b). The following table presents the results for the combination of α-lipoic acid and captopril.

Experiment [3] concerns peritoneal macrophages. Put plainly: Stability of intracellular thiol restitution in peritoneal macrophages in the dialysis model. As to conditions: after approximately 4 days in the dialysis model. The method, then:
as §1, with “combinations.” for “combinations. A similar result is apparent in the curves of the membrane-bound thiol expression illustrated in FIG. 7.”

In experiment [4] the test system is peritoneal macrophages. The experiment in a line: Degree of differentiation and activation of peritoneal macrophages (CD15, CD11c, CD69, CD71 cytofluorimetry). As to conditions: Control = 1.0; after 6 days of incubation; α-lipoic acid 50 μM, ambroxol 10 μM, enalapril 5 μM, captopril 10 μM.
The subject of a further experiment is T-lymphocytes. Put plainly: Activation markers CD69, CD25, CD71 of PHA-stimulated T-lymphocytes (activation index). As to conditions: thiol-deficient cells, 1.0 μg/ml phytohemagglutinin, culture time 72 hours; normal = 1.0. The method, then:
In the cultivation experiment described with reference to Example 1, human T-lymphocytes were stimulated with 1.0 μg/ml phytohemagglutinin. In a culture time of 72 hours, specific markers of the cellular activation were quantitatively detected using cytofluorimetery by means of monoclonal antibodies. The influence of the combinations used according to the invention on the activation markers CD69 (early activation antigen), CD25 (intermediate activation antigen) and CD71 (late activation antigen) of T-lymphocytes was measured. […] It can thus be concluded that the normalization of the cellular thiol status achieved by the combined use of α-lipoic acid and the respective effectors of the glutathione metabolism is accompanied by a restitution of cell function.

The subject of experiment [5] is peritoneal macrophages. Put plainly: Intracellular thiol expression of peritoneal macrophages from peritoneal dialysis patients. The conditions noted are these: time kinetic over 14 days. The protocol: Peritoneal macrophages were isolated from the effluate of peritoneal dialysis of patients with a high degree of renal insufficiency, absorbed in a cell culture medium and incubated in a gasifying incubation cabinet at 37° C., a relative humidity of 98% and 7.5% relative air-CO2 content. To investigate the influence of the combinations used according to the invention on the thiol status of the peritoneal macrophages, individual fractions were treated with α-lipoic acid, the effectors of the glutathione metabolism ambroxol or the ACE inhibitor enalapril and with the combination of α-lipoic acid/ambroxol or α-lipoic acid/enalapril, while an additional fraction was maintained as an untreated control. The cellular thiol status was determined using the measurement methods described in Example 1. FIG. 4 illustrates the effect of the combination of α-lipoic acid and ambroxol (FIG. 4a) and α-lipoic acid and enalapril (FIG. 4b) in a time kinetic over 14 days […].

Experiment [6] concerns peritoneal macrophages. The experiment in a line: Degree of differentiation and activation of peritoneal macrophages (CD15, CD11c, CD69, CD71 cytofluorimetry). The conditions noted are these: Control = 1.0; after 6 days of incubation; α-lipoic acid 50 μM, ambroxol 10 μM, enalapril 5 μM, captopril 10 μM. The protocol: Peritoneal macrophages were isolated from patients during renal replacement therapy using the method described in Example 3 and cultivated in the presence of the combinations of α-lipoic acid and effectors of the glutathione metabolism according to the invention. After 6 days of incubation, the degree of differentiation of the peritoneal macrophages was determined by means of the expression of the cell surface antigens CD15 and CD11c, and the degree of cellular activation was determined using cytofluorimetry by means of the co-expression of the activation antigens CD69 to CD15-positive cells and CD71 to […] cells.
The source holds these as a separate data set.

In experiment [7] the test system is peritoneal macrophages. Put plainly: Phagocytosis capacity of peritoneal macrophages (cytofluorimetric test with opsonized fluorochrome-marked bacteria). As to conditions: treatment time of 6 days. The protocol: Peritoneal macrophages were isolated using a method analogous to the method described in Example 3 and cultivated ex vivo. The phagocytosis capacity was determined by a cytofluorimetric test on the single-cell level. The macrophages were thereby co-cultivated with opsonized and fluorochrome-marked bacteria. The number of bacteria absorbed during a defined period was determined quantitatively by means of the fluorescence intensity in the macrophages and was used as a measurement for their phagocytosis capacity. The influence of the combinations used according to the invention on the phagocytosis capacity of the peritoneal macrophages after a treatment time of 6 days is presented in the following table.

On to `O=C(O)CCCCC1CCSS1` (stereo not drawn) [α-lipoic acid], for which the “Membrane-bound thiol expression in the dialysis model (in words)” value in the experiment on peritoneal macrophages [1] is reported as “intermediary”. For the same molecule, the Membrane-resistant thiol expression in experiment [2] (length of culture 0 d) turned out to be 2.37 ± 0.45 mfiBeads/Ratio; in experiment [2] (length of culture 1 d), 2.65 ± 0.39 mfiBeads/Ratio; in experiment [2] (length of culture 2 d), 2.43 ± 0.52 mfiBeads/Ratio; in experiment [2] (length of culture 3 d), 2.31 ± 0.36 mfiBeads/Ratio; in experiment [2] (length of culture 4 d), 2.26 ± 0.20 mfiBeads/Ratio; in experiment [2] (length of culture 6 d) it was 2.19 ± 0.13 mfiBeads/Ratio. The Membrane-resistant thiol expression is 1.93 ± 0.20 mfiBeads/Ratio in experiment [2] (length of culture 8 d), 1.63 ± 0.16 mfiBeads/Ratio in experiment [2] (length of culture 10 d), 1.32 ± 0.21 mfiBeads/Ratio in experiment [2] (length of culture 12 d) and 1.34 ± 0.20 mfiBeads/Ratio in experiment [2] (length of culture 14 d). In the experiment on peritoneal macrophages [3], the “Effectiveness relative to the combinations” value is “approximately 50%”. Moreover, the CD11c/71 co-expression with peritoneal macrophages [4] is 1.08 ± 0.09. Further, the “Effect on the activation index of T-lymphocytes (CD69, CD25, CD71; in words)” value with T-lymphocytes is listed as “slight improvement of the cellular activation”. Also, in the experiment with peritoneal macrophages [5], the “Effect on cellular thiol expression of peritoneal macrophages (in words)” value was “increase of the cellular thiol expression”. Moreover, the CD11c expression in the experiment with peritoneal macrophages [6] was 1.21 ± 0.11. Moreover, the CD15/69 co-expression in the experiment on peritoneal macrophages [6] is given as 1.09 ± 0.08. In the experiment on peritoneal macrophages [6], the CD15 expression is 1.18 ± 0.16. The “Phagocytosis rate higher than that of the untreated control by a factor of” value in the experiment on peritoneal macrophages [7] stood at 1.85.
